# Laboratory results published in PMC7036097 (BioMed Research International, 2020).
# Target: T1, DPP4 (Homo sapiens, UniProt P27487)
# T1 construct: purchased Sigma
# Assay: DPPIV-Glo Protease Assay (DPP4 protease inhibition assay)
# Assay type: biochemical
# Details: in vitro
# Experimental: At the same time, the inhibitory effect of other compounds present in tea such as epigallocatechin, epicatechin gallate, epicatechin, and catechin on DPP4 activity was also determined. […] Epigallocatechin, epicatechin gallate, epicatechin, and catechin were obtained from bidepharm (Shanghai, China). Half maximal inhibitory concentration (IC50) values were determined by nonlinear regression in GraphPad Prism 6 software.
# T1 sequence (P27487 whole entry): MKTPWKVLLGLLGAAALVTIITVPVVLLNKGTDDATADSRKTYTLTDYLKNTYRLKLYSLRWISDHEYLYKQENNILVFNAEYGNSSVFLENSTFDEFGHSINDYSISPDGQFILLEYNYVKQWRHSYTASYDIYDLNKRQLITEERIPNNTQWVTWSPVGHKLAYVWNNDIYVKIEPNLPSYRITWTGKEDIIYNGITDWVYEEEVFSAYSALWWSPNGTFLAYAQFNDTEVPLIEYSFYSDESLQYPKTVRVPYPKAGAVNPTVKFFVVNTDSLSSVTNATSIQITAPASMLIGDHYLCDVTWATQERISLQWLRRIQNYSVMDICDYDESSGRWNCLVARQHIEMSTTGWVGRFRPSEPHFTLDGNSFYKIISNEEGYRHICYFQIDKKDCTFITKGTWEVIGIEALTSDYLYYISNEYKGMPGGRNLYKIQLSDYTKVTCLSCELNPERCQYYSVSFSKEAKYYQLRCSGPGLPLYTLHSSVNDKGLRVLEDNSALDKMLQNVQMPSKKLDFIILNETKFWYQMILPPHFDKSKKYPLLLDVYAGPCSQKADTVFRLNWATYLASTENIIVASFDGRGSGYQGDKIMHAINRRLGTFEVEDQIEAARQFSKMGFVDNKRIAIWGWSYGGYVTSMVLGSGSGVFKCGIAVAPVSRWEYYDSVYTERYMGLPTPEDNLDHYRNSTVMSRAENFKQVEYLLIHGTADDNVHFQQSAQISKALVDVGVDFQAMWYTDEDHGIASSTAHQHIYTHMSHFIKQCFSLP
row,IC50 [µM],SMILES
1,107,O=C(O[C@@H]1Cc2c(O)cc(O)cc2O[C@@H]1c1ccc(O)c(O)c1)c1cc(O)c(O)c(O)c1 [epicatechin gallate]
2,567,Oc1cc(O)c2c(c1)O[C@H](c1cc(O)c(O)c(O)c1)[C@H](O)C2 [epigallocatechin]
3,28.4,"O=C(OC1Cc2c(O)cc(O)cc2OC1c1cc(O)c(O)c(O)c1)c1cc(O)c(O)c(O)c1 (centres unmarked) [EGCG, Epigallocatechin-3-gallate]"
4,281,Oc1cc(O)c2c(c1)O[C@H](c1ccc(O)c(O)c1)[C@H](O)C2 [epicatechin]
5,381,Oc1cc(O)c2c(c1)O[C@H](c1ccc(O)c(O)c1)[C@@H](O)C2 [catechin]
